# Earlier results as cited in US9119775B2, “Use of pilocarpine for hypoptyalism treatment” (priority 2004, dated 2015).
# Legend:
# salivary glands [1] = tested on: salivary glands
# salivary glands [2] = settings: according to the known pharmacokinetic studies
structure (smiles),measurement,setting,value
CC[C@@H]1C(=O)OC[C@@H]1Cc1cncn1C [pilocarpine],delay of first action of the pilocarpine after intake,"salivary glands [1]; oral method, after intake",0.45 to 1 h
same,undesirable secondary effects,"salivary glands [1]; oral tablets, 15 mg per day up to 30 mg per day, conducted over several weeks","nausea, excessive sweating, sensations of dizziness, hot flashes or asthenias"
same,duration of the effects of stimulation,salivary glands [2],4 to 8 h
